Experimental data reported in patent publication US8217071B2, “Use of inhibitors of the degradation of p27, in particular Argyrin and derivatives thereof, for the treatment of proliferative diseases” (Helmholtz Zentrum für Infektionsforschung GmbH, priority 2007, dated 2012).
Numbered stars: 1 amine (or outer) side, 2 acyl side, 3 side chain; on linkers, the order of the positions; unused ones are H or OH. Square brackets hold non-standard residues; d marks the D form. Peptide text beside a SMILES is read from it. dAla(ψthiazole) = C[C@@H](N[*:1])c1nc(C(=O)[*:2])cs1; Trp(4-OMe) = COc1cccc2[nH]cc(C[C@H](N)C(=O)O)c12; Dha = C=C(N)C(=O)O; Sar = CNCC(=O)O

Tests used:
[1] = system: MCF7 cells; assay: Gene expression signature (DNA microarray) of MCF7 cells; assay type: cell-based, human
Method: The inventors decided to compare the cellular responses of cells treated with Argyrin A or bortezomib directly. To this end the inventors determined the gene expression signature of MCF7 cells in response to Argyrin A or bortezomib and compared the resulting gene expression profiles. […] As shown in FIG. 2G the gene expression profiles of MCF7 cells which were treated with either bortezomib or Argyrin A differ dramatically. While bortezomib treatment led to changes in the expression of more than 10900 genes, only about 500 genes changed in response to Argyrin A treatment. Among these genes, 311 were affected by both bortezomib and Argyrin A, respectively.
Quality and integrity of the total RNA isolated was controlled by running all samples on an Agilent Technologies 2100 Bioanalyzer (Agilent Technologies; Waldbronn, Germany). For biotin-labelled target synthesis starting from 3 μg of total RNA, reactions were performed using standard protocols supplied by the manufacturer (Affymetrix; Santa Clara, Calif.). In each case 10 μg of labelled cRNA were hybridized to an identical lot of Affymetrix GeneChips HG-U133 2.0 for 16 hours at 45° C. After hybridisation the GeneChips were washed, stained with SA-PE and read using an Affymetrix GeneChip fluidic station and scanner.
Analysis of microarray data was performed using the Affymetrix GCOS 1.2 software. […]

[2] = system: mouse embryonic fibroblasts from p27^kip1 knockout mice; assay: Apoptosis (sub-G1 fraction) by flow cytometry in p27 knockout MEF; assay type: cell-based; settings: for apoptosis in p27 knockout MEF: sub G1 fraction
Excerpt: Next the inventors tested whether the stabilization of p27 was indeed required for the apoptosis inducing function of Argyrin A or was merely a consequence of proteasome inhibition. For this the inventors treated immortalized mouse embryonic fibroblasts from p27^kip1 wildtype or knockout mice with Argyrin A or the proteasome inhibitor bortezomib and assayed cell cycle distribution and apoptosis by flow cytometry. […] These differences in sensitivity in response to Argyrin A treatment were not due to differences in the accumulation of other proteasomal substrates in p27 wildtype and knockout cells as p53 and p21 levels increased in both cell lines in response to Argyrin A (FIG. 6B). To extend this observation to human cancer cells the inventors reduced the levels of p27^kip1 in HeLa cells using p27^kip1 specific siRNA.
The results shown are the average numbers for six independent experiments. b+d) Wildtype (b) and p27 knockout (d) MEF were treated with Argyrin A or transfected with siRNAs specific for the β1, β2 or β5 subunit of the proteasome for 24 hours. The graphs show the remaining catalytic activity of the different proteasome subunits after Argyrin A or siRNA treatment compared to an untreated control (n=3). The western blots show the expression of the β1, β2 or β5 subunit of the proteasome in proliferating cells and after treatment with siRNAs for a representative experiment. c+e) Flow cytometric measurements of the number of apoptotic cells (sub-G1 fraction) after Argyrin A or siRNA treatment in wildtype (c) or p27 knockout (E) MEF. f) HeLa cells were treated with Argyrin A or siRNA against p27 or Argyrin A and siRNA against p27 for either 24 or 48 hours.
(§1) MTT assays were done as previously described (Sasse, F. et al. Argyrins, immunosuppressive cyclic peptides from myxobacteria. I. Production, isolation, physico-chemical and biological properties. J Antibiot (Tokyo) 55, 543-51 (2002)). TUNEL staining of tissue sections was performed on 10 micrometer sections which were deparafinised and treated as recommended by the manufacturer. (In Situ Cell Death Detection Kit, Fluorescein; ROCHE, Cat #11 684 795 910). Flow cytometric analysis of cultured cells was done using a Becton Dickinson fluorescence cytometer as previously described (Malek, N. P. et al. A mouse knock-in model exposes sequential proteolytic pathways that regulate p27^Kip1 in G1 and S phase. Nature 413, 323-7 (2001)). Analysis of the distribution of cells in the cell cycle and the sub-G1 fraction was done using Cell Quest software. A histone-associated-DNA-fragments ELISA was used to determine the number of apoptotic cells according to manufacturers instructions (Roche #11 774425001).

[3] = system: SW480 colon carcinoma xenotransplant tumours; assay: SW480 xenotransplant tumours in nu/nu mice; assay type: in vivo, mouse; settings: for proteasome activity in the primary tumour tissue: single dose
Method: At the indicated timepoints 20S proteasome was isolated from peripheral blood cells and the activity of the different proteasome subunits was determined as described (FIG. 1d). b) SW480 colon carcinoma cell lines mixed with matrigel were injected under the skin of nu/nu mice to establish xenotransplant tumours. Treatment with Argyrin A or bortezomib was started when these tumours reached a volume of 200 mm^3. […] The activity of the respective proteasome subunits was determined as described previously (FIG. 1d). e) Determination of the number of p27^kip1 positive cells in tumour tissue after Argyrin A treatment. The pictures show representative samples of immunohistochemical stainings for p27 in tumour tissues after 10 days of Argyrin A treatment. f) Detection of apoptotic cells in xenotransplanted tumours by TUNEL staining of tumour tissues after treatment with Argyrin A or bortezomib. At least 200 cells were counted on five independent sections to quantitate the number of apoptotic cells.
as §1
Proteasome assays using proteasome purified from cells or tissues were carried out in a 100 μL reaction volume containing 20 μg proteasome extract, 50 mmol/L EDTA and 60 μmol/L fluorogenic substrate (chymotrypsin-like (CT-L), trypsin-like (T-L) or caspase-like (C-L)) in ATP/DTT lysis buffer at 37° C. The assay buffer was supplemented with a final concentration of 0.05% SDS for the evaluation of the chymotrypsin-like activity and caspase-like activity. The rate of cleavage of fluorogenic peptide substrates was determined by monitoring the fluorescence of released amonomethylcoumarin using a Victor 1420 Multilabel counter (Wallac) at an excitation wavelength of 395 nm and emission wavelength of 460 nm over a period of 60 min.
1×10^7 SW480 cells or HCT116 cells (in 100 microliters DMEM medium and 100 microliters matrigel) were s.c. injected into the flanks of NMRI nu/nu mice. Tumours grew for approx. 18 days until they reached appropriate size (200 mm3). Tumour size was measured with a digital calliper and calculated with the help of the following formula: (Length×width2)*π/6. All experiments were done after review and in accordance with the animal rights and protection agencies of Lower Saxony, Germany.

| SMILES | number of genes with changed expression [1] | p27^kip1 knockout fibroblasts undergoing apoptotic cell death ([2]; after 60 hours of treatment) | apoptosis, share of all fibroblasts derived from p27 knockout mice ([2]; comparable levels of proteasome inhibition, 24 hours) | size of the xenotransplanted tumours ([3]; SW480, 0.15 mg/kg i.p. every three days) | apoptotic cell death, share of all tumor cells ([3]; SW480 xenograft, TUNEL staining) | p27^kip1 in tumour tissue ([3]; SW480 xenograft, immunohistochemistry) | proteasome activity in the primary tumour tissue [3] | apoptosis in p27 knockout MEF [2] | apoptosis in p27 knockout MEF ([2]; listed as Bortezomib) |
| --- | --- | --- | --- | --- | --- | --- | --- | --- | --- |
| C=C1NC(=O)[C@@H](C)NC(=O)CNC(=O)[C@H](Cc2c[nH]c3cccc(OC)c23)NC(=O)[C@H](Cc2c[nH]c3ccccc23)NC(=O)c2csc(n2)[C@@H](C)NC(=O)CN(C)C1=O [Argyrin A] (cyclo(W[Trp(4-OMe)]G[dA][Dha][Sar][dAla(ψthiazole)])) | about 500 genes | ten | 5% | significant reduction | > 60% | induction | significant reduction | – | – |
| CC(C)C[C@H](NC(=O)[C@H](Cc1ccccc1)NC(=O)c1cnccn1)B(O)O [bortezomib, reference compound] | more than 10900 genes | – | – | – | – | – | significant reduction | massive apoptosis | induced apoptosis |
